Patent US20170246311A1, “PEPTIDES FOR BINDING ALTERNATIVELY ACTIVATED MACROPHAGES” (University of Washington, priority 2016, published 2017)
Values belong to the molecule of their own block, whether it stands above or below them. Positions of bridges follow the written chain, without caps; N, C: chain ends. Non-standard residues stand in square brackets, D forms with d. Residues, ends and D or L forms follow the SMILES beside them. No end group written: not given here. *: point of attachment. Biotin = O=C1N[C@H]2[C@H](CS[C@H]2CCCCC(=O)*)N1; Phe(F5) = N[C@@H](Cc1c(F)c(F)c(F)c(F)c1F)C(=O)O

Columns and labels:
[1] = Solubility of cyclized peptide analogs
macrophages = format: cell-based, mouse
[2] = target: M2pep receptor on M2 macrophages (identity unknown) (mouse); assay: flow cytometry binding curves on murine M2 macrophages
[3] = target: M2pep receptor on M2 macrophages (identity unknown) (mouse); assay: flow cytometry on murine M2 macrophages, biotinylated peptide + streptavidin-FITC; apparent KD from half-maximal MFI
[4] = target: M2pep receptor on M2 macrophages (identity unknown) (mouse); assay: flow cytometry on murine M2 macrophages; apparent KD

Molecule: DFBP-cyclized M2pep(RY)Biotin (peptide)
fold enhancement of binding activity against DFBP-cyclized M2pepBiotin [2]: 4 fold
Kd [3]: 2.03 µM

Molecule: YEQDPWGVKWWYGGGSKKK(Biotin)-NH2 [M2pepBiotin]
Kd [4]: 220 µM

Further lines, with some results ahead:

solubility (in words) [1]: less soluble than the FF-cyclized analog
Molecule: CC(C)[C@@H]1NC(=O)CNC(=O)[C@H](Cc2c[nH]c3ccccc23)NC(=O)[C@@H]2CCCN2C(=O)[C@H](CC(=O)O)NC(=O)[C@H](CCC(N)=O)NC(=O)[C@H](CCC(=O)O)NC(=O)[C@H](Cc2ccc(O)cc2)NC(=O)CNC(=O)[C@H](Cc2c(F)c(F)c(F)c(F)c2F)NC(=O)[C@H](Cc2c(F)c(F)c(F)c(F)c2F)NC(=O)[C@@H](N)CSSC[C@@H](C(=O)N[C@H](CCCCN)C(=O)N[C@H](CCCCN)C(=O)N[C@H](CCCCN)C(=O)N[C@@H](CCCCNC(=O)CCCC[C@@H]2SC[C@@H]3NC(=O)N[C@@H]32)C(N)=O)NC(=O)CNC(=O)[C@H](Cc2ccc(O)cc2)NC(=O)[C@H](Cc2c[nH]c3ccccc23)NC(=O)[C@H](Cc2ccc(O)cc2)NC(=O)[C@H](CCCNC(=N)N)NC1=O [F(F5)F(F5)-cyclized M2pep(RY)Biotin] (H-C[Phe(F5)][Phe(F5)]GYEQDPWGVRYWYGC[dK][dK][dK]K(Biotin)-NH2; disulfide 1-18)
toxicity to macrophages (macrophages): very toxic to macrophages even at low micromolar concentrations

solubility (in words) [1]: significantly reduces solubility
Molecule: CC(C)[C@@H]1NC(=O)CNC(=O)[C@H](Cc2c[nH]c3ccccc23)NC(=O)[C@@H]2CCCN2C(=O)[C@H](CC(=O)O)NC(=O)[C@H](CCC(N)=O)NC(=O)[C@H](CCC(=O)O)NC(=O)[C@H](Cc2ccc(O)cc2)NC(=O)CNC(=O)[C@H](Cc2ccccc2)NC(=O)[C@H](Cc2ccccc2)NC(=O)[C@@H](N)CSSC[C@@H](C(=O)N[C@H](CCCCN)C(=O)N[C@H](CCCCN)C(=O)N[C@H](CCCCN)C(=O)N[C@@H](CCCCNC(=O)CCCC[C@@H]2SC[C@@H]3NC(=O)N[C@@H]32)C(N)=O)NC(=O)CNC(=O)[C@H](Cc2ccc(O)cc2)NC(=O)[C@H](Cc2c[nH]c3ccccc23)NC(=O)[C@H](Cc2ccc(O)cc2)NC(=O)[C@H](CCCNC(=N)N)NC1=O [FF-cyclized M2pep(RY)Biotin] (H-CFFGYEQDPWGVRYWYGC[dK][dK][dK]K(Biotin)-NH2; disulfide 1-18)
